Data taken from ChEMBL document CHEMBL3044672, “N9- and N7-(Chloromethyl Phenymethyl)Chloropurine Derivatives from , '-Dichloroxylenes: Synthesis and Anticancer Activity” (2005).

Tests used:
Format in all cases: functional
SK-MEL-5 = assay: Cytotoxicity against Homo sapiens (human) SK-MEL-5 cells after 48 hr by sulforhodamine B assay; details: SK-MEL-5, 48 h
NCI-H23 = assay: Cytotoxicity against Homo sapiens (human) NCI-H23 cells after 48 hr by sulforhodamine B assay; details: NCI-H23, 48 h; for CC50: read-out: LC50 (the source's name)
SF-268 [1] = assay: Cytotoxicity against Homo sapiens (human) SF268 cells assessed as cell growth at 10^-4 M after 48 hr by […] assay; details: SF-268, 48 h, read-out: Activity
OVCAR-8 = assay: Cytotoxicity against Homo sapiens (human) OVCAR8 cells after 48 hr by sulforhodamine B assay; details: OVCAR-8, 48 h
SNB-19 = assay: Cytotoxicity against Homo sapiens (human) SNB19 cells after 48 hr by sulforhodamine B assay; details: SNB-19, 48 h
COLO 205 = assay: Cytotoxicity against Homo sapiens (human) COLO205 cells after 48 hr by sulforhodamine B assay; details: COLO 205, 48 h
NCI-H460 = assay: Cytotoxicity against Homo sapiens (human) NCI-H460 cells assessed as cell growth at 10^-4 M after 48 hr by Alamar blue assay; details: NCI-H460, 48 h, read-out: Activity
HOP-62 = assay: Cytotoxicity against Homo sapiens (human) HOP62 cells after 48 hr by sulforhodamine B assay; details: HOP-62, 48 h; for CC50: read-out: LC50 (the source's name)
SN12C = assay: Cytotoxicity against Homo sapiens (human) SN12C cells after 48 hr by sulforhodamine B assay
K562 = assay: Cytotoxicity against Homo sapiens (human) K562 cells after 48 hr by sulforhodamine B assay; details: K562, 48 h; for CC50: read-out: LC50 (the source's name)
SF-539 = assay: Cytotoxicity against Homo sapiens (human) SF539 cells after 48 hr by sulforhodamine B assay; details: SF-539, 48 h
UACC-62 = assay: Cytotoxicity against Homo sapiens (human) UACC62 cells after 48 hr by sulforhodamine B assay; details: UACC-62, 48 h
BT-549 = assay: Cytotoxicity against Homo sapiens (human) BT549 cells after 48 hr by sulforhodamine B assay; details: BT-549, 48 h
MCF7 = assay: Cytotoxicity against Homo sapiens (human) MCF7 cells after 48 hr by sulforhodamine B assay; details: MCF7, 48 h
LOX IMVI = assay: Cytotoxicity against Homo sapiens (human) LOXIMVI cells after 48 hr by sulforhodamine B assay
SF-268 [2] = assay: Cytotoxicity against Homo sapiens (human) SF268 cells after 48 hr by sulforhodamine B assay; details: SF-268, 48 h
RXF 393 = assay: Cytotoxicity against Homo sapiens (human) RXF393 cells after 48 hr by sulforhodamine B assay; details: RXF 393, 48 h; for CC50: read-out: LC50 (the source's name)
MDA-MB-231 = assay: Cytotoxicity against Homo sapiens (human) MDA-MB-231 cells after 48 hr by sulforhodamine B assay; details: MDA-MB-231, 48 h
NCI-H522 = assay: Cytotoxicity against Homo sapiens (human) NCI-H522 cells after 48 hr by sulforhodamine B assay; details: NCI-H522, 48 h; for CC50: read-out: LC50 (the source's name)
KM12 = assay: Cytotoxicity against Homo sapiens (human) KM12 cells after 48 hr by sulforhodamine B assay; details: KM12, 48 h; for CC50: read-out: LC50 (the source's name)
PC-3 = assay: Cytotoxicity against Homo sapiens (human) PC3 cells after 48 hr by sulforhodamine B assay; details: PC-3, 48 h
OVCAR-4 = assay: Cytotoxicity against Homo sapiens (human) OVCAR4 cells after 48 hr by sulforhodamine B assay; details: OVCAR-4, 48 h
RPMI-8226 = assay: Cytotoxicity against Homo sapiens (human) RPMI8226 cells after 48 hr by sulforhodamine B assay; details: RPMI-8226, 48 h; for CC50: read-out: LC50 (the source's name)
SNB-75 = assay: Cytotoxicity against Homo sapiens (human) SNB75 cells after 48 hr by sulforhodamine B assay; details: SNB-75, 48 h; for CC50: read-out: LC50 (the source's name)
HT-29 = assay: Cytotoxicity against Homo sapiens (human) HT-29 cells after 48 hr by sulforhodamine B assay; details: HT-29, 48 h
EKVX = assay: Cytotoxicity against Homo sapiens (human) EKVX cells after 48 hr by sulforhodamine B assay; details: for CC50: read-out: LC50 (the source's name)
[3] = read-out: LC50 (the source's name)

## ClCc1cccc(Cn2cnc3c(Cl)nc(Cl)nc32)c1
SK-MEL-5
  GI50: 1580 nM
  LC50: 5.88 µM
  TGI: 3020 nM
NCI-H23
  GI50: 2130 nM
  TGI: 5.12 µM
  CC50: 22.4 µM
SF-268 [1]
  growth at 100 µM: 0%
OVCAR-8
  GI50: 1.82 µM
  LC50 (concentration killing 50% of cells): 67.6 µM
  TGI: 3.54 µM
SNB-19
  GI50: 1950 nM
  LC50: 8.92 µM
  TGI: 4.16 µM
COLO 205
  GI50: 2230 nM
  TGI: 5.37 µM
COLO 205; [3]
  CC50: > 100 µM
NCI-H460
  growth at 100 µM: 0%
HOP-62
  GI50: 2290 nM
  TGI: 4.36 µM
  CC50: 8.31 µM
SN12C
  GI50: 2130 nM
  LC50 (50% lethal concentration): 11.8 µM
  TGI: 4.67 µM
K562
  GI50: 1580 nM
  TGI: > 100000 nM
  CC50: > 100 µM
SF-539
  GI50: 2180 nM
  LC50 (concentration killing 50% of cells): 40.7 µM
  TGI: 14.1 µM
UACC-62
  GI50: 1860 nM
  LC50 (concentration causing 50% net cell kill): 6.45 µM
  TGI: 3460 nM
BT-549
  GI50: 1690 nM
  LC50 (50% lethal concentration): 6.16 µM
  TGI: 3230 nM
MCF7
  GI50: 2040 nM
  LC50 (concentration killing 50% of cells): > 100 µM
  TGI: 6.45 µM
LOX IMVI
  GI50: 1690 nM
  LC50: 6.91 µM
  TGI: 3380 nM
SF-268 [2]
  GI50: 2510 nM
  TGI: 6.6 µM
SF-268 [2]; [3]
  CC50: 70.8 µM
RXF 393
  GI50: 750 nM
  TGI: 2090 nM
  CC50: 5.12 µM
MDA-MB-231
  GI50: 1950 nM
  LC50: 7.24 µM
  TGI: 3710 nM
NCI-H522
  GI50: 2690 nM
  TGI: 5.37 µM
  CC50: 17 µM
KM12
  GI50: 1.82 µM
  TGI: 3.8 µM
  CC50: 7.94 µM
PC-3
  GI50: 2390 nM
  LC50 (concentration causing 50% cell kill): 55 µM
  TGI: 5.01 µM
OVCAR-4
  GI50: 5.49 µM
  LC50 (concentration killing 50% of cells): 61.7 µM
  TGI: 19.9 µM
RPMI-8226
  GI50: 3310 nM
  TGI: > 100 µM
  CC50: > 100 µM
SNB-75
  GI50: 2040 nM
  TGI: 3.89 µM
  CC50: 7.41 µM
HT-29
  GI50: 2390 nM
  TGI: > 100 µM
HT-29; [3]
  CC50: > 100 µM
EKVX
  GI50: 1730 nM
  TGI: 2310 nM
  CC50: 6.45 µM

## ClCc1cccc(Cn2cnc3nc(Cl)nc(Cl)c32)c1
SK-MEL-5
  GI50: 1200 nM
  LC50: 4.89 µM
  TGI: 2450 nM
NCI-H23
  GI50: 1540 nM
  TGI: 30.9 µM
  CC50: 5.37 µM
SF-268 [1]
  growth at 100 µM: 0%
OVCAR-8
  GI50: 9.33 µM
  LC50 (concentration killing 50% of cells): 45.7 µM
  TGI: 21.4 µM
SNB-19
  GI50: 1380 nM
  LC50: 5.12 µM
  TGI: 2.69 µM
COLO 205
  GI50: 410 nM
  TGI: 1.65 µM
NCI-H460
  growth at 100 µM: 0%
HOP-62
  GI50: 2180 nM
  TGI: 3.63 µM
  CC50: 6.02 µM
SN12C
  GI50: 1440 nM
  TGI: 2.75 µM
K562
  GI50: 1410 nM
  TGI: 2690 nM
  CC50: 5.24 µM
SF-539
  GI50: 160 nM
  LC50 (concentration killing 50% of cells): 1.62 µM
  TGI: 0.46 µM
UACC-62
  GI50: 1020 nM
  LC50 (concentration causing 50% net cell kill): 4.67 µM
  TGI: 2180 nM
BT-549
  GI50: 480 nM
  LC50 (50% lethal concentration): 4.16 µM
  TGI: 1730 nM
MCF7
  GI50: 1510 nM
  LC50 (concentration killing 50% of cells): > 100 µM
  TGI: 4.07 µM
LOX IMVI
  GI50: 230 nM
  TGI: 790 nM
SF-268 [2]
  GI50: 2130 nM
  TGI: 3.8 µM
RXF 393
  GI50: 1340 nM
  TGI: 2630 nM
  CC50: 5.12 µM
MDA-MB-231
  GI50: 460 nM
  LC50: 4.16 µM
  TGI: 1730 nM
NCI-H522
  GI50: 1810 nM
  TGI: 3.54 µM
  CC50: 6.91 µM
KM12
  GI50: 16.6 µM
  TGI: 35.5 µM
  CC50: 74.1 µM
PC-3
  GI50: 1540 nM
  LC50 (concentration causing 50% cell kill): 5.37 µM
  TGI: 2.88 µM
OVCAR-4
  GI50: 1.58 µM
  LC50 (concentration killing 50% of cells): 5.37 µM
  TGI: 2.95 µM
RPMI-8226
  GI50: 1690 nM
  TGI: 4.16 µM
  CC50: > 100 µM
SNB-75
  GI50: 1090 nM
  TGI: 2.29 µM
  CC50: 4.78 µM
HT-29
  GI50: 340 nM
EKVX
  GI50: 930 nM
  TGI: 2130 nM
  CC50: 4.57 µM
